The source of these data is patent US20200291096A1, “BICYCLIC PEPTIDE LIGAND STING CONJUGATES AND USES THEREOF” (priority 2017, published 2020).

For one experiment, the target named is MMP16 (Homo sapiens, UniProt P51512). Kind of experiment: Binding to related MMP family member MMP16.
The target of experiment [1] is T1, MMP2 (Homo sapiens, UniProt P08253).
T1 sequence (P08253 110-660): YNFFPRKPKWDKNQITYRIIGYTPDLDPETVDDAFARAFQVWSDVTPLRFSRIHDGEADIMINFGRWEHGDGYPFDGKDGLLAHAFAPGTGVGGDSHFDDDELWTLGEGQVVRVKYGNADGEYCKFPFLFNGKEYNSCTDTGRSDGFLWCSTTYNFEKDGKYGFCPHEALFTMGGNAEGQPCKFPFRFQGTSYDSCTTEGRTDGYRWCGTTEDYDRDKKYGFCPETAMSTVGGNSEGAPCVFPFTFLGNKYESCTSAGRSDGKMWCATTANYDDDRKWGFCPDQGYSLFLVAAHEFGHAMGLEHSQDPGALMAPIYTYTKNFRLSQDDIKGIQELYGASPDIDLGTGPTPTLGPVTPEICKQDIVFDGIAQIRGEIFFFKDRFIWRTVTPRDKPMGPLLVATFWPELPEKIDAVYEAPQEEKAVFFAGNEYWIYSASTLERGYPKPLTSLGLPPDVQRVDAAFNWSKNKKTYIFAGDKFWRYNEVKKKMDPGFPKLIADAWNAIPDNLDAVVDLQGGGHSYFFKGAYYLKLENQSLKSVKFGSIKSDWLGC
Kind of experiment: Effect on MMP2 catalytic activity. In kind it is biochemical. Conditions: in vitro.

A further experiment has as its target MMP9 (Homo sapiens, UniProt P14780). The experiment in a line: Effect on MMP9 catalytic activity. In kind it is biochemical. To be noted: in vitro.
In the next experiment the target is MMP24 (Homo sapiens, UniProt Q9Y5R2). The experiment in a line: Binding to related MMP family member MMP24.
The target of another experiment is MMP15 (Homo sapiens, UniProt P51511). Kind of experiment: Binding to related MMP family member MMP15.
Another experiment has as its target MT1 (Homo sapiens, UniProt P50281). Kind of experiment: Effect on catalytic activity of MT1 in vitro. Type of experiment: biochemical.
Experiment [2] deals with T2, MMP1 (Homo sapiens, UniProt P03956).
T2 sequence (P03956 100-469): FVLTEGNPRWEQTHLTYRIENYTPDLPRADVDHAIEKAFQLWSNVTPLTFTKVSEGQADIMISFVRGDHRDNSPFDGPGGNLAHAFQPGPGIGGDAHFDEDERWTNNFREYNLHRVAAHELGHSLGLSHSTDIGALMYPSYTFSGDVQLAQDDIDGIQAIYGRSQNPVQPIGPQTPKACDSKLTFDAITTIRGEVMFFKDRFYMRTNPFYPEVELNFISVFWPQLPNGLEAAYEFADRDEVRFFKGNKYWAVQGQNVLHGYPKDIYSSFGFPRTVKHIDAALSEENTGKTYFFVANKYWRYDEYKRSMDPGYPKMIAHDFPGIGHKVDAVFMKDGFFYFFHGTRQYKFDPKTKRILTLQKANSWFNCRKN
The experiment in a line: Binding to related MMP family member MMP1.

Experiment [3] has as its system cell migration or invasion. Kind of experiment: Effect on cell migration or invasion. In kind it is cell-based. Conditions: in vitro.
For the next experiment, the target named is T3, Pro-MMP1 (Homo sapiens, UniProt P03956).
T3 sequence (P03956 20-469 limits assumed): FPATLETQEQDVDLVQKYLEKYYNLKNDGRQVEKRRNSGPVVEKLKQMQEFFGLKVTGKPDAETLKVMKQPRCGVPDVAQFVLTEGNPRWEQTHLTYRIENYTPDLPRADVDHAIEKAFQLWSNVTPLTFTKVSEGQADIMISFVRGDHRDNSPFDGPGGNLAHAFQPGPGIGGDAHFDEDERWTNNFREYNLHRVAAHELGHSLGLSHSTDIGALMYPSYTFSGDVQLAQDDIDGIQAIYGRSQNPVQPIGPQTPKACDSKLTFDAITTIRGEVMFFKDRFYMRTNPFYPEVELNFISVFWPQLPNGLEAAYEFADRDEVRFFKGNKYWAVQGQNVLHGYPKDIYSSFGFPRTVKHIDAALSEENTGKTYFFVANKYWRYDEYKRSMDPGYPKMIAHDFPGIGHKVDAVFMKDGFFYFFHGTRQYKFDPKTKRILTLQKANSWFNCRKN
Kind of experiment: Binding to related MMP family member Pro-MMP1.

Another experiment deals with catalytic domain (MT1). The experiment in a line: Binding to catalytic domain of MT1.
Experiment [4] deals with T2, MMP1. The experiment in a line: Effect on MMP1 catalytic activity. Type of experiment: biochemical. To be noted: in vitro.
In experiment [5] the target is T1, MMP2. The experiment in a line: Binding to related MMP family member MMP2.

Starred links: 1 amine or outer side, 2 acyl side, 3 side chain; linkers in the order of their positions; H or OH if unused. Positions of bridges follow the written chain, without caps; N, C: chain ends. Non-standard residues stand in square brackets, D forms with d. Residues, ends and D or L forms follow the SMILES beside them. 1Nal = N[C@@H](Cc1cccc2ccccc12)C(=O)O; TBMB = c1c(C[*:1])cc(C[*:3])cc1C[*:2]; Tle = CC(C)(C)[C@H](N)C(=O)O; βAla = NCCC(=O)O; Sar = CNCC(=O)O

Sequence of MMP16 (P51512 120-607, species assumed): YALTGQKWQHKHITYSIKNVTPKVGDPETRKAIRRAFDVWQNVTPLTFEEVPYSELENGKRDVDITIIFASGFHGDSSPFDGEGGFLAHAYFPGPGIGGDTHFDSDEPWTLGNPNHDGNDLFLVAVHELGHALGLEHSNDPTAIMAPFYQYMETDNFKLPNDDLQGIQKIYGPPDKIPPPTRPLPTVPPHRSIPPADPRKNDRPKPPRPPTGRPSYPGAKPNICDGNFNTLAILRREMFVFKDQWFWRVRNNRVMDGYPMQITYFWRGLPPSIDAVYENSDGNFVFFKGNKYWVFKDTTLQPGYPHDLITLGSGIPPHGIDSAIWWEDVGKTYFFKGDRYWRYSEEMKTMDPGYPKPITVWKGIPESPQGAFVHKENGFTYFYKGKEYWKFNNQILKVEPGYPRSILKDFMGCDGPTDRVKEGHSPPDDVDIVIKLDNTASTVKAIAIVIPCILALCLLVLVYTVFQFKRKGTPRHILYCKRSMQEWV
Sequence of MMP24 (Q9Y5R2 156-645, species assumed): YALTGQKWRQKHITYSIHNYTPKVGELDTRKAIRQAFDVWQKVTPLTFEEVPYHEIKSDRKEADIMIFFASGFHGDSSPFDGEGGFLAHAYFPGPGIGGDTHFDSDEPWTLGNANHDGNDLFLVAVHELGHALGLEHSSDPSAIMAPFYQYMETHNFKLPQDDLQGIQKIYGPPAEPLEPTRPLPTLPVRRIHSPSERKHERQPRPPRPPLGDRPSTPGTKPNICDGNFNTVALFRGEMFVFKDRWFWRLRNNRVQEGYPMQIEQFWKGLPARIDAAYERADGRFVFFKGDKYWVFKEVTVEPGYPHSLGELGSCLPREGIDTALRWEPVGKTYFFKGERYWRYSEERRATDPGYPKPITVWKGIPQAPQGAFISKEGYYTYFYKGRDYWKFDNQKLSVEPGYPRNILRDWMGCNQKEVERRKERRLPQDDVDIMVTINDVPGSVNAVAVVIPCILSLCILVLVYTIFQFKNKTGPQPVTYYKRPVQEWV
Sequence of MMP15 (P51511 132-669, species assumed): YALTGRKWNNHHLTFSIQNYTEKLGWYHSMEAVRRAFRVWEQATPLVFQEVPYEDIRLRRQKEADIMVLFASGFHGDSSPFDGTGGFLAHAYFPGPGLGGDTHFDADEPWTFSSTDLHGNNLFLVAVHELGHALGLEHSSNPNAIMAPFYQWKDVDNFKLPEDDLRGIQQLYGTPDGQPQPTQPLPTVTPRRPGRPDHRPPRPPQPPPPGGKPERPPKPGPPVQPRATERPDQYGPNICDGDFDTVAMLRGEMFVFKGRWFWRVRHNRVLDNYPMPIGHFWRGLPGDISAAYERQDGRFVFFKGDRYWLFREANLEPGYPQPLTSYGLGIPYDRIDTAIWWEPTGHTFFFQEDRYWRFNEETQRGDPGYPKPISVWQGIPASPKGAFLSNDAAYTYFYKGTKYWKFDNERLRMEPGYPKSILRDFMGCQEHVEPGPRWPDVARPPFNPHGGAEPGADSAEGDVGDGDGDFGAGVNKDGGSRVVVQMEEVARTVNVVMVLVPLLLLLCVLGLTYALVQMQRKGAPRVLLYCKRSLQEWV
Sequence of MMP9 (P14780 94-707, species assumed): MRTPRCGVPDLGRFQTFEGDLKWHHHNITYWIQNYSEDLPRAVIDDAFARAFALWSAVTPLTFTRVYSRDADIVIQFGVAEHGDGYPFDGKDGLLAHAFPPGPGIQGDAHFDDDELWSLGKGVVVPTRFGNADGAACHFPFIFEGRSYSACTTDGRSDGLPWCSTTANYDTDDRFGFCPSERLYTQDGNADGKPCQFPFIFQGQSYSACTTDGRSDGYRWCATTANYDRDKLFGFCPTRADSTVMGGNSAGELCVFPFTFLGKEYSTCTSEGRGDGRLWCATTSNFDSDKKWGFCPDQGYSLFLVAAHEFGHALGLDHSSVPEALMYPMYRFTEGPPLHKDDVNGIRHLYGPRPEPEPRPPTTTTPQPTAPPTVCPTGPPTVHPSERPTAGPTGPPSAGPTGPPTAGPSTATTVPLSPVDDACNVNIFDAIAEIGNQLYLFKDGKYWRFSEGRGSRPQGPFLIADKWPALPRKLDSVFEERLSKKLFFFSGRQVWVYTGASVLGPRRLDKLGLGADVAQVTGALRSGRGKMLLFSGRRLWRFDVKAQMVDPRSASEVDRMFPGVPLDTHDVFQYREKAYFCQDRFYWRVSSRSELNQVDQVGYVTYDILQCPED

With `C[C@H](NC(=O)CN(C)C(=O)CN(C)C(=O)CN(C)C(=O)CN(C)C(=O)CN(C)C(=O)CN(C)C(=O)CN(C)C(=O)CN(C)C(=O)CN(C)C(=O)CN(C)C(=O)CCN)C(=O)N[C@H]1CSCc2cc3cc(c2)CSC[C@H](NC(=O)[C@@H](C)NC(=O)[C@H](Cc2cccc4ccccc24)NC(=O)[C@H](CCC(=O)O)NC(=O)[C@H](CC(N)=O)NC(=O)[C@@H](C)NC1=O)C(=O)N[C@@H](CCC(=O)O)C(=O)N[C@@H](CC(=O)O)C(=O)N[C@@H](Cc1ccccc1)C(=O)N[C@@H](Cc1ccc(O)cc1)C(=O)N[C@@H](CC(=O)O)C(=O)N[C@@H](C(C)(C)C)C(=O)N[C@H](C(N)=O)CSC3` [N241] (H-[βAla][Sar][Sar][Sar][Sar][Sar][Sar][Sar][Sar][Sar][Sar]AC[dA]NE[1Nal][dA]CEDFYD[Tle]C-NH2; linker 13-19-26 via TBMB; N-terminus and C-terminus assumed), the “binding toward MMP16” value at MMP16 is “no binding”. Besides, the “impact on MMP2 catalytic activity” value at MMP2 [1] is on record as “no direct impact”. For the same compound, the “impact on MMP9 catalytic activity” value at MMP9 is on record as “no direct impact”. Also, the “binding toward MMP24” value at MMP24 is listed as “no binding”. Moreover, the “binding toward MMP15” value at MMP15 was “no binding”. Also, at MT1, the “impact on the catalytic activity of the protease (MT1)” value is recorded as “no direct impact”. Moreover, the “binding toward MMP1” value on MMP1 [2] is reported as “no binding”. For the same compound, in [3], the “impact on cell migration or invasion” value is on record as “no direct impact”. Also, on Pro-MMP1, the “binding toward Pro-MMP1” value is recorded as “no binding”. The “binding to the catalytic domain” value in the experiment on catalytic domain (MT1) is given as “no binding”. In addition, at MMP1 [4], the “impact on MMP1 catalytic activity” value is “no direct impact”. Besides, the “binding toward MMP2” value on MMP2 [5] is “no binding”.
